What all share (format): cell-based
Assay [1] concerns Chloroquine sensitive (CQS) P. falciparum strain. As to the kind of experiment: Schizont maturation inhibition (SMI), chloroquine sensitive strain. The following applies: Plasmodium falciparum, schizont maturation inhibition determined after 24 hr. The method, then:
(§1) Parasites were cultured in O (+) erythrocytes in RPMI-1640 media supplemented with 25 mM HEPES buffer and 10% AB (+) serum by candlejar technique.^9 Initial culture was maintained in small vials (2.5 cm dia.) with 10% haematocrit, i.e. 10 μl erythrocytes containing 1.5% ring stage parasite in 100 μl complete media. The culture volume per well for the assay was 100 μl. Parasitamia was determined for each set of culture, number of parasites for the assay were adjusted at 1 to 1.5% by diluting with fresh O (+) RBC. Assay was done in 96 well microtitre flat-bottomed tissue culture plates. Parasite culture was synchronized at ring forms using density gradient method^10 and cultured for 24 h. in the presence of various doses of compounds and chloroquine for their effect in schizont maturation. Test was done in duplicate wells for each dose of the drugs. Control culture was done with RPMI-164 containing 10% AB (+) serum. Growth of the parasites from duplicate wells of each concentration was monitored in JSB stained^11 blood smears by counting number of schizont per 200 asexual parasites. Percent schizont maturation inhibition was calculated by the formula: (1−Nt/Nc)×100 where, Nt and Nc represent the number of schizont in the test and control well respectively.

Assay [2] has as its system Chloroquine resistant (CQR) P. falciparum strain. As to the kind of experiment: Schizont maturation inhibition (SMI), chloroquine resistant strain. The settings on record: Plasmodium falciparum, schizont maturation inhibition determined after 24 hr. The method, then:
as §1

Assay [3] has the same test system. As to the kind of experiment: Total parasite growth inhibition (PGI), chloroquine resistant strain. The following applies: Plasmodium falciparum, total parasite growth inhibition determined after 48 hr.
In assay [4] the test system is Chloroquine sensitive (CQS) P. falciparum strain. Briefly: Total parasite growth inhibition (PGI), chloroquine sensitive strain. The settings on record: Plasmodium falciparum, total parasite growth inhibition determined after 48 hr.

Converted amounts (≈) assume the structure as drawn.

The IC50 is the concentration that inhibits the measured activity by half. A word on the IC90: it is the point of the concentration-response curve where the effect stands at 90%. The low end stands for greater potency, the high end for weaker potency. Turning to `C=C(C(=O)OC)C(O)c1cc(-c2ccccc2)cnc1Cl` (stereo not drawn) [If, Methyl 2-[(2-chloro-5-phenylpyridine-3-yl)(hydroxy)methyl]acrylate], the IC50 in assay [1] stood at 45 µg/mL (≈ 148 µM); in assay [2], 5 µg/mL (≈ 16.5 µM); in assay [3] it was 10.8 µg/mL (≈ 35.4 µM); in assay [4], 115 µg/mL (≈ 379 µM). Further, the IC90 in assay [1] was 125 µg/mL (≈ 412 µM); in assay [2], 30 µg/mL (≈ 98.8 µM); in assay [3], 77.5 µg/mL (≈ 255 µM); in assay [4] it was 350 µg/mL (≈ 1150 µM).
For the molecule `C=C(C#N)C(O)c1cc(CC)cnc1Cl` (stereo not drawn) [Ib, 2-[(2-Chloro-5-ethylpyridine-3-yl)(hydroxy)methyl]acrylonitrile], the IC50 in assay [1] was determined as 1.8 µg/mL (≈ 8.08 µM); in assay [2], 2.5 µg/mL (≈ 11.2 µM); in assay [3], 5.5 µg/mL (≈ 24.7 µM); in assay [4], 4 µg/mL (≈ 18 µM). In addition, the IC90 in assay [1] came out at 15.5 µg/mL (≈ 69.6 µM); in assay [2], 6.5 µg/mL (≈ 29.2 µM); in assay [3] it was 26 µg/mL (≈ 117 µM); in assay [4], 31 µg/mL (≈ 139 µM).
`C=C(C#N)C(O)c1cc(-c2ccccc2)cnc1Cl` (stereo not drawn) [Ic, 2-[(2-Chloro-5-phenylpyridine-3-yl)(hydroxy)methyl]acrylonitrile]: the IC50 in assay [1] was found to be 3.6 µg/mL (≈ 13.3 µM); in assay [2], 0.9 µg/mL (≈ 3.32 µM); in assay [3], 2.2 µg/mL (≈ 8.13 µM); in assay [4], 8 µg/mL (≈ 29.6 µM). Also, the IC90 in assay [1] came to 25.5 µg/mL (≈ 94.2 µM); in assay [2] it was 1.5 µg/mL (≈ 5.54 µM); in assay [3], 6.75 µg/mL (≈ 24.9 µM); in assay [4], 23 µg/mL (≈ 85 µM).
In the case of `C=C(C#N)C(O)c1ccc(C(=O)OC)nc1Cl` (stereo not drawn) [Id, Methyl 6-chloro-5-(2-cyano-1-hydroxyallyl) 2-pyridine carboxylate], the IC50 in assay [1] stood at 3.4 µg/mL (≈ 13.5 µM); in assay [2] it was 5.75 µg/mL (≈ 22.8 µM); in assay [3] it was 6.75 µg/mL (≈ 26.7 µM); in assay [4] it was 7 µg/mL (≈ 27.7 µM). Further, the IC90 worked out at 22 µg/mL (≈ 87.1 µM) in assay [1], 25.5 µg/mL (≈ 101 µM) in assay [2], 29 µg/mL (≈ 115 µM) in assay [3] and 29 µg/mL (≈ 115 µM) in assay [4].
Turning to `C=C(C(=O)OC)C(O)c1cc(C)cnc1Cl` (stereo not drawn) [Ie, Methyl 2-[(2-chloro-5-methylpyridine-3-)(hydroxy)methyl]acrylate], the IC50 amounted to 18 µg/mL (≈ 74.5 µM) in assay [1], 3.05 µg/mL (≈ 12.6 µM) in assay [2], 5.75 µg/mL (≈ 23.8 µM) in assay [3] and 28.5 µg/mL (≈ 118 µM) in assay [4]. Also, the concentration for an effect of 90% (IC90) in assay [1] came out at 32 µg/mL (≈ 132 µM); in assay [2], 7 µg/mL (≈ 29 µM); in assay [3], 27.5 µg/mL (≈ 114 µM); in assay [4], 115 µg/mL (≈ 476 µM).
Take `C=C(C#N)C(O)c1cc(C)cnc1Cl` (stereo not drawn) [Ia, 2-[(2-Chloro-5-methylpyridine-3-yl)(hydroxy)methyl]acrylonitrile]: the IC50 in assay [1] amounted to 1.25 µg/mL (≈ 5.99 µM); in assay [2], 22.5 µg/mL (≈ 108 µM); in assay [3] it was 10.5 µg/mL (≈ 50.3 µM); in assay [4], 1.3 µg/mL (≈ 6.23 µM). Further, the 90% effect concentration (IC90) was 25.5 µg/mL (≈ 122 µM) in assay [1], 125 µg/mL (≈ 599 µM) in assay [2], 300 µg/mL (≈ 1440 µM) in assay [3] and 85 µg/mL (≈ 407 µM) in assay [4].

For the origin of these results see patent US7666883B2, “Antimalarial Baylis-Hillman adducts and a process for the preparation thereof” (Council of Scientific and Industrial Research, priority 2005, dated 2010).
